Measured values reported in patent publication US5137872A, “Growth hormone-releasing factor analogs” (Pitman-Moore, Inc., priority 1989, dated 1992).

System: serum ovine somatotropin (oST)
Experiment: Serum ovine somatotropin (oST) by RIA after subcutaneous injection of GRF compounds in lambs
Format: in vivo
Experimental: Whether lambs (40-45 kg) were injected subcutaneously with the following GRF compounds in a phosphate buffered saline vehicle (pH 7):
10.0 ug/kg recombinant native hGRF (rhGRF)
5.0 ug/kg synthetic native hGRF (shGRF)
5.0 ug/kg [Pro^0, Gly^15, Met^27 ]-hGRF(1-44)-NH2 (aGRF)
There were 4 animals per treatment group and each treatment was repeated 3 times to give a total of 12 samples/time point/treatment. The animals were bled at time 0, 10, 20, 30, 60 and 120 minutes after injection and analyzed for serum ovine somatotropin (oST) by radioimmunoassay (RIA).
Example 4 was repeated using the following treatments:
20.0 ug/kg recombinant native hGRF (rhGRF)
10.0 ug/kg synthetic native hGRF (shGRF)

[1] = 5.0 ug/kg subcutaneous, FIG. 1 (Example 4)
[2] = 10.0 ug/kg subcutaneous, FIG. 2 (Example 5)

Row | Compound | serum oST concentration at 120 minutes post injection versus time 0 [1] | serum oST concentration at 120 minutes post injection versus time 0 [2] | duration of in vivo biological activity [1] | duration of in vivo bioactivity compared to native GRF [2]
1 | CC[C@H](C)[C@H](NC(=O)[C@H](C)NC(=O)[C@H](CC(=O)O)NC(=O)[C@H](C)NC(=O)[C@@H](N)Cc1ccc(O)cc1)C(=O)N[C@@H](Cc1ccccc1)C(=O)N[C@H](C(=O)N[C@@H](CC(N)=O)C(=O)N[C@@H](CO)C(=O)N[C@@H](Cc1ccc(O)cc1)C(=O)N[C@@H](CCCNC(=N)N)C(=O)N[C@@H](CCCCN)C(=O)N[C@H](C(=O)N[C@@H](CC(C)C)C(=O)NCC(=O)N[C@@H](CCC(N)=O)C(=O)N[C@@H](CC(C)C)C(=O)N[C@@H](CO)C(=O)N[C@@H](C)C(=O)N[C@@H](CCCNC(=N)N)C(=O)N[C@@H](CCCCN)C(=O)N[C@@H](CC(C)C)C(=O)N[C@@H](CC(C)C)C(=O)N[C@@H](CCC(N)=O)C(=O)N[C@@H](CC(=O)O)C(=O)N[C@H](C(=O)N[C@@H](CCSC)C(=O)N[C@@H](CO)C(=O)N[C@@H](CCCNC(=N)N)C(=O)N[C@@H](CCC(N)=O)C(=O)N[C@@H](CCC(N)=O)C(=O)NCC(=O)N[C@@H](CCC(=O)O)C(=O)N[C@@H](CO)C(=O)N[C@@H](CC(N)=O)C(=O)N[C@@H](CCC(N)=O)C(=O)N[C@@H](CCC(=O)O)C(=O)N[C@@H](CCCNC(=N)N)C(=O)NCC(=O)N[C@@H](C)C(=O)N[C@@H](CCCNC(=N)N)C(=O)N[C@@H](C)C(=O)N[C@@H](CCCNC(=N)N)C(=O)N[C@@H](CC(C)C)C(N)=O)[C@@H](C)CC)C(C)C)[C@@H](C)O [native synthetic hGRF, reference compound] | returned to baseline serum oST levels | returned to baseline serum oST levels | – | –
2 | [Pro^0, Gly^15, Met^27 ]-hGRF(1-44)-NH2 | oST concentrations greater than those at time 0 | oST concentrations greater than those at time 0 | prolonged in vivo biological activity | prolonged in vivo bioactivity
